Series [1] deals with NCI-H226. Nature of the series: NCI COMPARE panel (SRB growth inhibition), NCI-H226. Conditions: Homo sapiens; Non-Small Cell Lung Cancer, NCI-H226, 48 h. In kind it is cell-based. As for the experimental part: (§1) The human tumor cell lines of the cancer screening panel are grown in RPMI 1640 medium containing 5% fetal bovine serum and 2 mM L-glutamine. For a typical screening experiment, cells are inoculated into 96 well microtiter plates in 100 µL at plating densities ranging from 5,000 to 40,000 cells/well depending on the doubling time of individual cell lines. After cell inoculation, the microtiter plates are incubated at 37° C., 5% CO2, 95% air and 100% relative humidity for 24 h prior to addition of experimental drugs.
(§2) After 24 h, two plates of each cell line are fixed in situ with TCA, to represent a measurement of the cell population for each cell line at the time of drug addition (Tz). Experimental drugs are solubilized in dimethyl sulfoxide at 400-fold the desired final maximum test concentration and stored frozen prior to use. […]
(§3) Following drug addition, the plates are incubated for an additional 48 h at 37° C., 5 % CO2, 95% air, and 100% relative humidity. […] Bound stain is subsequently solubilized with 10 mM trizma base, and the absorbance is read on an automated plate reader at a wavelength of 515 nm. […] Using the seven absorbance measurements [time zero, (Tz), control growth, (C), and test growth in the presence of drug at the five concentration levels (Ti)], the percentage growth is calculated at each of the drug concentrations levels. Percentage growth inhibition is calculated as: […]

In series [2] the test system is NCI-H460. Nature of the series: NCI COMPARE panel (SRB growth inhibition), NCI-H460. It is filed as cell-based. Conditions: Homo sapiens; Non-Small Cell Lung Cancer, NCI-H460, 48 h. As for the experimental part:
as §1, §2, §3

Series [3] relates to SK-MEL-5. Nature of the series: NCI COMPARE panel (SRB growth inhibition), SK-MEL-5. In kind it is cell-based. As to conditions: Homo sapiens; Melanoma, SK-MEL-5, 48 h. As for the experimental part:
as §1, §2, §3

The subject of series [4] is UACC-257. The series is described as follows: NCI COMPARE panel (SRB growth inhibition), UACC-257. It is filed as cell-based. As to conditions: Homo sapiens; Melanoma, UACC-257, 48 h. The method, then: as §1, §2, §3
Series [5] relates to A549/ATCC. The series is described as follows: NCI COMPARE panel (SRB growth inhibition), A549/ATCC. It is filed as cell-based. As to conditions: Homo sapiens, Non-Small Cell Lung Cancer, 48 h. As for the experimental part:
as §1, §2, §3

The nature of series [6]: Solubility assessment in aqueous media. In kind it is physicochemical. Conditions: kinetic from dmso stock, 25° C. The method, then: Preparation of stock solutions: The stock solutions of test compounds and control compound diclofenac were prepared in DMSO at the concentrations of 10 mM.
Procedure for solubility determination: 15 µL of stock solution (10 mM) of each sample was placed in order into their proper 96-well rack. 485 µL of (SIF, SGF, PBS 7.4, FESSIF, or FESSGF) was added into each vial of the cap-less Solubility Sample plate. The assay was performed in duplicate. Add one stir stick to each vial and seal using a molded PTFE/Silicone plug. […] After completion of the 2 hours, plugs were removed and the stir sticks were removed using a big magnet, the samples from the Solubility Sample plate were transferred into the filter plate. Using the Vacuum Manifold, all the samples were filtered. Aliquot of 5 µL and 5 µL DMSO were taken from the filtrate followed by addition of 490 µL of a mixture of H2O and acetonitrile containing internal standard (1:1). A certain proportion of ultrapure water was used to dilute the diluent according to the peak shape. The dilution factor was changed according to the solubility values and the LC-MS signal response.
Preparation of 300 µM standards (STD): From the 10 mM DMSO STD plate, 6 µL was transferred into the remaining empty plate, and then 194 µL of DMSO was added to that plate to have a STD concentration of 300 µM. From the 300 µM DMSO STD plate, 5 µL DMSO STD and 5 µL SIF was transferred into the remaining empty plate, and then 490 µL of a mixture of H2O and acetonitrile containing internal standard (1:1) was added to that plate to have a final STD concentration of 3 µM. […]
Procedure for sample analysis: The plate was placed into the well plate autosampler. The samples were evaluated by LC-MS/MS analysis.
Data analysis: All calculations were carried out using Microsoft Excel. The filtrate was analyzed and quantified against a standard of known concentration using LC coupled with mass spectral peak identification and quantitation. Solubility values of the test compound and control compound were calculated as follows: […]

Converted amounts (≈) assume the structure as drawn. Where only a bound is given, the exact number is not on record here.

One may read the GI50 as the concentration giving 50% growth inhibition. The low end stands for more potent growth inhibition, the high end for less potent growth inhibition. As to `CS(=O)(=O)Nc1cc(-c2ccc3ncc(C#N)c(Nc4cccc(Cl)c4F)c3c2)cnc1Cl` [Compound 10, N-[2-chloro-5-[4-(3-chloro-2-fluoro-anilino)-3-cyano-6-quinolyl]-3-pyridyl]methanesulfonamide], the GI50 was over 250 nM in series [1]; over 250 nM in series [2]; at most 75 nM in series [3]; over 250 nM in series [4]; over 250 nM in series [5].
By solubility is commonly meant the dissolved amount per volume that the medium holds. With `CS(=O)(=O)Nc1cc(-c2ccc3ncnc(Nc4cccc(Cl)c4F)c3c2)cnc1Cl` [Compound 6, N-[2-chloro-5-[4-(3-chloro-2-fluoro-anilino)quinazolin-6-yl]-3-pyridyl] methanesulfonamide], the GI50 in series [1] is over 250 nM; in series [2] it was over 250 nM; in series [3], 125 to 250 nM; in series [4], 125 to 250 nM; in series [5], 125 to 250 nM. Besides, the solubility at 2 h was 5 to 100 µM (≈ 2.39 to 47.8 µg/mL) in series [6] (PBS pH 7.4, aqueous buffer, pH 7.4 Buffer); 5 to 100 µM (≈ 2.39 to 47.8 µg/mL) in series [6] (fassgf or other biorelevant, Simulated Intestinal Fluid (SIF)); over 200 µM in series [6] (Simulated Gastric Fluid (SGF)).

The values are drawn from patent US20230133958A1, “COMPOUNDS USEFUL IN MODULATING EGFR AND PI3K” (Mekanistic Therapeutics LLC, priority 2021, published 2023).
